Where “and” joins values, the source holds several entries; their conditions need not be identical. Equal values may be shown once. Read-outs that look alike come from different tables or passages of the source.
Key:
hSERT [1] = molecular target: T1, hSERT (Homo sapiens, UniProt P31645); assay: [125I]RTI-55 binding, HEK-hSERT cells
hNET [2] = molecular target: T2, hNET (Homo sapiens, UniProt P23975); assay: biochemical; assay type: binding
human 5-HT2A receptor [3] = molecular target: T3, human 5-HT2A receptor (Homo sapiens, UniProt P28223); assay: IP-1 formation, HEK-5-HT2A cells; assay type: cell-based; conditions: for Emax: read-out: 5-HT2A Function IP-1 formation % maximal effect
T3 sequence (P28223 whole entry): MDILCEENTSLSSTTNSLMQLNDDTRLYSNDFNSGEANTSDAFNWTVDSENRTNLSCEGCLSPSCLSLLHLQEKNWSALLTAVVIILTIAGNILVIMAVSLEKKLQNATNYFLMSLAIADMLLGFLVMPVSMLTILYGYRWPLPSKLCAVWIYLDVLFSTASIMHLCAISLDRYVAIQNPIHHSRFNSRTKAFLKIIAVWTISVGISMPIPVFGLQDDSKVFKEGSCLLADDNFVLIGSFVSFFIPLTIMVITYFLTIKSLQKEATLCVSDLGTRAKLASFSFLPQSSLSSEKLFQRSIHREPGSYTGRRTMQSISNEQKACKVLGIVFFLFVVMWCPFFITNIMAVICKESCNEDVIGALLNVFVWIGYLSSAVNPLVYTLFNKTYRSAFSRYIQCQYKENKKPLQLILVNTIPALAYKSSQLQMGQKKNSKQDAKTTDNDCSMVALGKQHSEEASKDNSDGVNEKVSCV

Male Sprague-Dawley rats = assay: Adverse effects observed during drug discrimination test sessions; assay type: in vivo, rat
[4] = tested on: rats trained to discriminate DOM (0.5 mg/kg) from saline; assay type: in vivo, rat; conditions: 15 min pretreatment
[5] = tested on: rats trained to discriminate METH (1 mg/kg) from saline; assay type: in vivo, rat; conditions: METH-trained rats, 15 min pretreatment
[6] = tested on: rats trained to discriminate LSD (0.1 mg/kg) from saline; assay type: in vivo, rat; conditions: LSD-trained rats, 15 min pretreatment; for Maximum %DAR (drug-appropriate responding): i.p., at dose of maximum DAR
human 5-HT2A receptor [7] = molecular target: T3, human 5-HT2A receptor; assay: [3H]AA release from HEK-5-HT2A cells; assay type: cell-based; conditions: for Emax: read-out: 5-HT2A Function [3H]AA release % maximal effect
hDAT [8] = molecular target: T4, hDAT (Homo sapiens, UniProt Q01959); assay: [125I]RTI-55 binding, HEK-hDAT cells
T4 sequence (Q01959 whole entry): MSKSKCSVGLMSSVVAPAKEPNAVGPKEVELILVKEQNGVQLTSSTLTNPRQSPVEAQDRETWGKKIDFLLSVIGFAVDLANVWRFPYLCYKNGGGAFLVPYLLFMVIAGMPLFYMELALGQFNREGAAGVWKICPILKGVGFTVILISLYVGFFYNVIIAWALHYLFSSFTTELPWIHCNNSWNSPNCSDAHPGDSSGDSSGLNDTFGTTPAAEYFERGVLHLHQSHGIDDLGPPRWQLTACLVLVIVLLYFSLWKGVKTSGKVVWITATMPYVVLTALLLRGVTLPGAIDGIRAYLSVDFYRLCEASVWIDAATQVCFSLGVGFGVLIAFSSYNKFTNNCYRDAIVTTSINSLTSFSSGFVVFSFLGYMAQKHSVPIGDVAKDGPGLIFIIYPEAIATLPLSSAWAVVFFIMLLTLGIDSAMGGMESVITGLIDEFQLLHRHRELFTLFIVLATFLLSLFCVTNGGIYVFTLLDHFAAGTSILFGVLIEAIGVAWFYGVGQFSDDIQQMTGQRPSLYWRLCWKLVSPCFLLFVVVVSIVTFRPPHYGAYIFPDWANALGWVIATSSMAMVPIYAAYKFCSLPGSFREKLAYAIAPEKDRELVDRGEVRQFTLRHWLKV

hSERT [9] = molecular target: T1, hSERT; assay: [3H]Serotonin uptake, HEK-hSERT cells; assay type: cell-based
hDAT [10] = molecular target: T4, hDAT; assay: [3H]Dopamine release, HEK-hDAT cells; assay type: cell-based; conditions: HEK-hDAT cells
hDAT [11] = molecular target: T4, hDAT; assay: [3H]Dopamine uptake, HEK-hDAT cells; assay type: cell-based
hNET [12] = molecular target: T2, hNET; assay: cell-based
[13] = tested on: rats trained to discriminate MDMA (1.5 mg/kg) from saline; assay type: in vivo, rat; conditions: for Rate of responding at dose of maximum DAR / Maximum %DAR (drug-appropriate responding): MDMA-trained rats, 15 min pretreatment; for Maximum %DAR (drug-appropriate responding): i.p., at dose of maximum DAR
Male Swiss–Webster mice = assay: Locomotor activity; assay type: in vivo, mouse; conditions: mice, i.p.
human 5-HT2A receptor [14] = molecular target: T3, human 5-HT2A receptor; assay: [125I]DOI binding, HEK-5-HT2A cells
[15] = tested on: rats trained to discriminate DMT (5 mg/kg) from saline; assay type: in vivo, rat; conditions: DMT-trained rats; 15 min pretreatment
human 5-HT1A receptor [16] = molecular target: T5, human 5-HT1A receptor (Homo sapiens, UniProt P08908); assay: [35S]GTPγS binding functional assay, HEK-5-HT1A; assay type: biochemical; conditions: for Emax: read-out: 5-HT1A Function [35S]GTPγS Binding % maximal effect
T5 sequence (P08908 1-422): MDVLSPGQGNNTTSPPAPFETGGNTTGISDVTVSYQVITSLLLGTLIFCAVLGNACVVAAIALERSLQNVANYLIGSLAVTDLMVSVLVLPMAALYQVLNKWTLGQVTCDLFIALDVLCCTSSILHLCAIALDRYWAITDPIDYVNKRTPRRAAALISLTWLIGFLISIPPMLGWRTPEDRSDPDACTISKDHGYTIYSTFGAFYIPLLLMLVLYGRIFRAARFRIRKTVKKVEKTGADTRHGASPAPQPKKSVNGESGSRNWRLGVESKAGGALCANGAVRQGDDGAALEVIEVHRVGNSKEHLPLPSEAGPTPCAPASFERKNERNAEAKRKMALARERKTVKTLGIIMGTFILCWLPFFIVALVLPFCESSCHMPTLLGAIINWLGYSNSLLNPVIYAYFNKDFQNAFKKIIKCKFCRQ

hSERT [17] = molecular target: T1, hSERT; assay: [3H]Serotonin release, HEK-hSERT cells; assay type: cell-based
hNET [18] = molecular target: T2, hNET; assay: cell-based; remark: listed apart in the source
human 5-HT1A receptor [19] = molecular target: T5, human 5-HT1A receptor; assay: [3H]8-OH-DPAT binding, HEK-5-HT1A
human 5-HT2C receptor [20] = molecular target: T6, human 5-HT2C receptor (Homo sapiens, UniProt P28335); assay: biochemical; assay type: binding
T6 sequence (P28335 33-458): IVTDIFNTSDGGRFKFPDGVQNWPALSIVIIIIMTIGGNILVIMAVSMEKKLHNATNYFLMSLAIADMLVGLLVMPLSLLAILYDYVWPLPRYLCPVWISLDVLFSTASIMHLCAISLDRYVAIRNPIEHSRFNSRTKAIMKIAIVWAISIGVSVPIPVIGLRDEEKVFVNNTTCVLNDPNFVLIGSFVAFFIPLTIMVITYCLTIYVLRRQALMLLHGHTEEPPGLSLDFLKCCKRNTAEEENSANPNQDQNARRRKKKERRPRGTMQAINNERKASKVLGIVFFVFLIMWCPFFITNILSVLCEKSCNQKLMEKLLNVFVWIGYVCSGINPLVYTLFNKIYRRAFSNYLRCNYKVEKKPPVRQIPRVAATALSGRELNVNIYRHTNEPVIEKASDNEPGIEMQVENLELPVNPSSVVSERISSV

human 5-HT2C receptor [21] = molecular target: T6, human 5-HT2C receptor; assay: cell-based; conditions: for Emax: read-out: 5-HT2C Function IP-formation % maximal effect
[22] = normalized to the maximal effect of serotonin

T1 sequence (P31645 whole entry): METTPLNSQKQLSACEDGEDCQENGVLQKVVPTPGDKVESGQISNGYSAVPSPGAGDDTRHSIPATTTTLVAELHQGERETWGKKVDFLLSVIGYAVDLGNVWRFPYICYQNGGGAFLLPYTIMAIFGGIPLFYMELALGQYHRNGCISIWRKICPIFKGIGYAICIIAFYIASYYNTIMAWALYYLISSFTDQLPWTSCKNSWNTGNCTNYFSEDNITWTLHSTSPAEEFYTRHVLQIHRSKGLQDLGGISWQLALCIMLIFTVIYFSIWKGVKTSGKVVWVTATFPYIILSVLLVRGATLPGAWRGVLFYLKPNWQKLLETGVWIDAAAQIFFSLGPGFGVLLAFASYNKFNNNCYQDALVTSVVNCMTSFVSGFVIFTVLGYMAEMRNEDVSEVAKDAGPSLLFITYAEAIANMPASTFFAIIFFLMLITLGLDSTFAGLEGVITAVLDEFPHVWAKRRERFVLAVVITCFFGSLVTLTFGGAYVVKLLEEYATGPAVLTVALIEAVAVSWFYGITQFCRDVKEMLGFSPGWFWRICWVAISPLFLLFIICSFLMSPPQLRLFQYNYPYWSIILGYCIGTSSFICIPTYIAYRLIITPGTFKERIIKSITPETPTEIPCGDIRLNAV
T2 sequence (P23975 whole entry): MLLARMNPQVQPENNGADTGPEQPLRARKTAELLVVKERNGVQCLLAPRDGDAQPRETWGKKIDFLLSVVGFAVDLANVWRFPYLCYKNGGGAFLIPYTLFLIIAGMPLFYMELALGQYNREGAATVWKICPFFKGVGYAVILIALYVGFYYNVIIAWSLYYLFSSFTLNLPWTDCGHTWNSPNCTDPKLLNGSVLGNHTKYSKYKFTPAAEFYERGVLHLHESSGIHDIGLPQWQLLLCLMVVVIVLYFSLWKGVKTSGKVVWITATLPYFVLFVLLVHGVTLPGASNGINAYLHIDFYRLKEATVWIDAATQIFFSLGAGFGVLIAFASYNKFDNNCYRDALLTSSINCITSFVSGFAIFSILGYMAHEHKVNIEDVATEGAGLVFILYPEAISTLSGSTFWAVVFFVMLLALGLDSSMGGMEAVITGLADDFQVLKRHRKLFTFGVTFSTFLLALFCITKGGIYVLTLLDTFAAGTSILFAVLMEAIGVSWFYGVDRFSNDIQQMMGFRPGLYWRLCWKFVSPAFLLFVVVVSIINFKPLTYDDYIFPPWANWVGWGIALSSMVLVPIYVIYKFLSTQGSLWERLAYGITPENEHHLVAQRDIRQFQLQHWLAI

Row | SMILES | Ki (hSERT [1]) [µM] | Ki (hNET [2]) [µM] | EC50 (human 5-HT2A receptor [3]) [µM] | Emax (human 5-HT2A receptor [3]) [%] | Rate of responding at dose of maximum DAR [5] [resp/s] | Rate of responding at dose of maximum DAR [6] [resp/s] | EC50 (human 5-HT2A receptor [7]) [µM] | Emax (human 5-HT2A receptor [7]) [%] | Ki (hDAT [8]) [µM] | IC50 (hSERT [9]) [µM] | [3H]Dopamine release % METH maximal effect (hDAT [10]) | IC50 (hDAT [11]) [µM] | [3H]NE release % METH maximal effect (hNET [12]) | Rate of responding at dose of maximum DAR [13] [resp/s] | Duration of depressant effects (Male Swiss–Webster mice) [min] | Ki (human 5-HT2A receptor [14]) [µM] | Emax (human 5-HT1A receptor [16]) [%] | [3H]Serotonin release % PCA maximal effect (hSERT [17]) | Ki (human 5-HT1A receptor [19]) [µM] | EC50 (human 5-HT1A receptor [16]) [µM] | further results
1 | CCc1cc(OC)c(CCN)cc1OC [2C-E, 2,5-dimethoxy-4-ethylphenethylamine] | > 10 | > 7.6 | 0.084 ± 0.016 | 125 ± 13 | 0.228±0.024 | 0.413±0.061 | 0.0071 ± 0.0033 | 65 ± 11 | > 10 | > 7.5 | ND Minimal | > 10 | ND Minimal | 0.053±0.036 | 50 to 70 | 0.0045 ± 0.00071 | < 20 | ND Minimal |  |  | Adverse effect observed (Male Sprague-Dawley rats; 10 mg/kg, MDMA-trained rats): Loss of muscle tone; Effect on responding (Male Sprague-Dawley rats; 25 mg/kg): completely suppressed responding; Rate of responding at dose of maximum DAR [4]: 0.576±0.087 resp/s; Maximum %DAR (drug-appropriate responding) ([4]; i.p., at dose of maximum DAR): 97±2 %; Maximum %DAR (drug-appropriate responding) [6]: 97±3 %; Maximum %DAR (drug-appropriate responding) [13]: 100±0 %; Duration of stimulant effects (Male Swiss–Webster mice): 70 to 100 min; Onset of depressant effects (within, after injection) (Male Swiss–Webster mice): ≤ 10 min; Onset of stimulant effects (within, after injection) (Male Swiss–Webster mice): ≤ 50 min; Rate of responding at dose of maximum DAR [15]: 0.466±0.166 resp/s; IC50 (hNET [18]): > 9.8 µM
2 | COc1cc(CCN)c(OC)cc1I [2C-I, 2,5-dimethoxy-4-iodophenethylamine] | 0.95 ± 0.44 | > 10 | 0.0079 ± 0.0022 | 82.4 ± 6.4 | 0.447±0.058 | 0.233±0.075 |  | 32.5 ± 1.5 | > 10 | 5.6 ± 2.1 | ND Minimal | > 9.6 | ND Minimal | 0.453±0.169 | 30 to 60 | 0.0093 ± 0.0032 | 102 ± 4.7 | ND Minimal | 0.97 ± 0.43 | 4.9 ± 2 | Ki (human 5-HT2C receptor [20]): 0.0102 ± 0.0017 µM; Maximum %DAR (drug-appropriate responding) ([5]; i.p., at dose of maximum DAR): 38% and 38±17 ^1%; Maximum %DAR (drug-appropriate responding) [6]: 80±20 %; EC50 (human 5-HT2C receptor [21]): 0.0028 ± 0.001 µM; Emax (human 5-HT2C receptor [21]): 79 ± 16%; Maximum %DAR (drug-appropriate responding) [13]: 65% and 65±21 ^1%; Dose(s) that decreased response rate ([13]; rat, in vivo): 2.5 to 10 mg/kg; Doses producing depression of locomotor activity (Male Swiss–Webster mice): 3 to 30 mg/kg; Onset of depressant effects (within, after injection) (Male Swiss–Webster mice): ≤ 10 min; Rate of responding at dose of maximum DAR [15]: 0.480±0.092 resp/s; IC50 (hNET [18]): > 8.2 µM
3 | CCSc1cc(OC)c(CCN)cc1OC [2C-T-2, 2,5-dimethoxy-4-ethylthiophenethylamine] | > 9.4 | > 10 | 0.0079 ± 0.002 | 87.4 ± 6.5 | 0.748±0.109 | 0.208±0.117 | 0.0023 ± 0.00069 | 107 ± 6.3 | > 10 | > 8.6 | ND Minimal | > 10 | ND Minimal | 0.448±0.130 | 30 to 50 | 0.0125 ± 0.0044 | 76 ± 10 | ND Minimal | 1.74 ± 0.66 | 3 ± 1.3 | Decreased muscle tone (rats affected/tested) (Male Sprague-Dawley rats; 5 mg/kg, LSD-trained rats): 3/6; Adverse effects observed (Male Sprague-Dawley rats; 10 mg/kg): hind limb paralysis, salivation and loss of muscle tone; Rats that failed to complete the first fixed ratio (Male Sprague-Dawley rats; highest dose tested, in each of DMT-, LSD-, MDMA- and METH-trained groups): 5/6; Rate of responding at dose of maximum DAR [15]: 0.170±0.106 resp/s; IC50 (hNET [18]): > 7.2 µM
4 | COC(=O)[C@H]1[C@@H](OC(=O)c2ccccc2)C[C@@H]2CC[C@H]1N2C [Cocaine, reference compound] |  |  |  |  |  |  |  |  |  |  | ND Minimal |  |  |  |  |  |  | ND Minimal |  |  | 
5 | CN(C)CCc1c[nH]c2ccccc12 [DMT, N,N,-dimethyltryptamine, reference compound] |  |  | 0.269 ± 0.061 | 39 ± 4.6 |  |  | 0.26 ± 0.12 | 105 ± 3 |  |  |  |  |  |  |  | 0.201 ± 0.048 | 100 ± 5.2 |  |  |  | 
6 | COc1cc(CC(C)N)c(OC)cc1C (stereo not drawn) [DOM, 2,5-dimethoxy-4-methylamphetamine, reference compound] |  |  | 0.0312 ± 0.0096 | 106 ± 11 |  |  |  |  |  |  |  |  |  |  |  | 0.0081 ± 0.0022 | 53.8 ± 9.7 |  | 11.9 ± 5.6 | 13.9 ± 1.5 | 
7 | CCN(CC)C(=O)[C@@H]1C=C2c3cccc4[nH]cc(c34)C[C@H]2N(C)C1 [LSD, lysergic acid diethylamide, reference compound] |  |  |  |  |  |  |  |  |  |  |  |  |  |  |  |  |  |  |  |  | Ki (hSERT [1]; read-out: hSERT [125I]RTI-55 binding Ki, HEK-hSERT cells, cells printed in μM): > 10 µM; Ki (hNET [2]; read-out: hNET [125I]RTI-55 binding Ki): 5.6 ± 0.26 µM; 5-HT2A Function IP-1 formation % maximal effect (human 5-HT2A receptor [3]; [22]): 80.3 ± 4.9%; 5-HT2A Function [3H]AA release % maximal effect (human 5-HT2A receptor [7]; [22]): 87.8 ± 3.4%; Ki (hDAT [8]; read-out: hDAT [125I]RTI-55 binding Ki, HEK-hDAT cells, cells printed in μM): > 10 µM; IC50 (hSERT [9]; read-out: [3H]Serotonin uptake IC50, HEK-hSERT cells, cells printed in μM): > 10 µM; IC50 (hDAT [11]; read-out: [3H]Dopamine uptake IC50, HEK-hDAT cells, cells printed in μM): > 10 µM; IC50 (hNET [18]; read-out: [3H]NE uptake IC50): > 10 µM
8 | CNC(C)Cc1ccc2c(c1)OCO2 (stereo not drawn) [MDMA, 3,4-methylenedioxymethamphetamine, reference compound] |  |  | 5500 ± 2300 | 40.2 ± 7.1 |  |  |  |  |  |  |  |  |  |  |  | 20.9 ± 4.6 | 64.3 ± 9.4 |  | 11.9 ± 1.2 | 36 ± 16 | Emax (human 5-HT2C receptor [21]): 92.2 ± 8%
9 | NCCc1c[nH]c2ccc(O)cc12 [Serotonin, reference compound] |  |  |  |  |  |  |  |  |  |  |  |  |  |  |  |  |  |  |  |  | Average maximal stimulation of IP-1 formation (human 5-HT2A receptor [3]; HEK-5-HT2A cells): 565 ± 46 nM IP1

Source: article PMC3945162 (Psychopharmacology, 2013)
